These results are taken from patent US20260000698A1 (priority 2022, published 2026).

One data set has as its system A549/ACE2/TMPRSS2 cells. Nature of the data set: in vitro. Conditions: for CC50: NT (nontoxic): cell viability at 50 μM; for CC50: A549/ACE2/TMPRSS2 cells; for cytotoxicity: human, 100 μM. On the procedure:
Percentage of infected cells was determined by dividing the number of infected cells by the total number of cells per well. The percentage of infected cells and total number of cells for each treatment was plotted into GraphPad prism (GraphPad Software; San Diego, CA, USA) to perform a non-linear regression analysis, generate infectious dose-response curves and to calculate EC50 and CC50 values.
Viability assays for the non-infected A549/ACE2/TMPRSS2 cells were performed using the 3-(4,5-dimethylthiazol-2-yl)-5-(3-carboxymethoxyphenyl)-2-(4-sulfophenyl)-2H-tetrazolium (MTS)-based tetrazolium reduction CellTiter 96 Aqueous Non-Radioactive cell proliferation assay (Promega G5430; Madison, WI) as described. Assays were conducted using parallel plates to those used in the immunofluorescence assay. Experimental details (cell line, number of cells seeded and incubation time) corresponded to those used in the immunofluorescence assay above. The data obtained were used to calculate the CC50 value using GraphPad Prism software.

Data set [1] concerns SARS-CoV-2 isolate USA-WA1/2020. The settings on record: inhibition at 50 μM.
Data set [2] addresses T1, SARS-CoV-2 Nsp14 MTase (Severe acute respiratory syndrome coronavirus 2, UniProt P0DTD1). Nature of the data set: biochemical. The format is biochemical.
The test system of data set [3] is SARS-CoV-2 isolate USA-WA1/2020. Nature of the data set: microbe, parasite or virus in culture. The settings on record: Severe acute respiratory syndrome coronavirus 2, A549-ACE2, 48 h.
In data set [4] the target is T1, SARS-CoV-2 Nsp14 MTase. Nature of the data set: Nsp14 MTase assay detected with MTase-Glo methyltransferase assay kit. The format is biochemical. The settings on record: for IC50: methylation reaction detected by MTase-Glo kit; for inhibition at 10 µM: read-out: MTase % inhibition at 10 μM. As for the experimental part: Detection using MTase-Glo™ methyltransferase assay kits. The assay was run according to Promega MTase-Glo™ kit (V7601) instructions. […]. GpppA was purchased by New England Biolabs and used at a final concentration of 3 uM/reaction. […] […] Compounds, Nsp14, GpppA at MTase-Glo™ reagent were pre-incubated for 15 min at room temperature. The assay was started with addition of SAM at final concentration of 1 uM/reaction (negative control had no SAM). The assay plate was mixed well with a plate shaker after each addition. The reaction was incubated for 15 min at 30° C. MTase-Glo™ detection solution was added, and the plate was incubated 60 min at room temperature. Luminescence was read on an M5e spectrophotometer.

[5] abbreviates: LC-MS/MS detection of SAH, read-out: MTase IC50.

With `Nc1ncnc2c1ncn2[C@@H]1O[C@H](CNCc2ccc3ccccc3c2)[C@@H](O)[C@H]1O` [Compound 1, (2R,3R,4S,5R)-2-(6-Amino-9H-purin-9-yl)-5-(((naphthalen-2-ylmethyl)amino)methyl)tetrahydrofuran-3,4-diol], the “CC50: NT (nontoxic)” value with A549/ACE2/TMPRSS2 cells is “NT^b (NT, nontoxic, >95% cell viability at 50 μM;)”. In data set [1], the “EC50: NA (not active)” value was “NA^a (NA, not active, <15% inhibition at 50 μM.)”. At SARS-CoV-2 Nsp14 MTase [2] (setting [5]), the IC50 stood at 9.6 µM.
As to `Nc1ncnc2c1ncn2[C@@H]1O[C@H](CNC(=O)c2ccc3ccccc3c2)[C@@H](O)[C@H]1O` [Compound 2, N-(((2R,3S,4R,5R)-5-(6-Amino-9H-purin-9-yl)-3,4-dihydroxytetrahydrofuran-2-yl)methyl)-2-naphthamide], the “CC50: NT (nontoxic)” value with A549/ACE2/TMPRSS2 cells is on record as “NT^b (NT, nontoxic, >95% cell viability at 50 μM;)”. Further, in data set [1], the “EC50: NA (not active)” value is given as “NA^a (NA, not active, <15% inhibition at 50 μM.)”. Besides, the IC50 on SARS-CoV-2 Nsp14 MTase [2] (setting [5]) was found to be 2.7 µM.
Turning to `Nc1ncnc2c1ncn2[C@@H]1O[C@H](CNS(=O)(=O)c2ccc3cccnc3c2)[C@@H](O)[C@H]1O` [Compound 4, N-(((2R,3S,4R,5R)-5-(6-Amino-9H-purin-9-yl)-3,4-dihydroxytetrahydrofuran-2-yl)methyl)quinoline-7-sulfonamide], in the data set with A549/ACE2/TMPRSS2 cells, the “CC50: NT (nontoxic)” value is “NT^b (NT, nontoxic, >95% cell viability at 50 μM;)”. Further, the “EC50: NA (not active)” value in data set [1] is “NA^a (NA, not active, <15% inhibition at 50 μM.)”. Moreover, the “MTase inhibitory activity” value on SARS-CoV-2 Nsp14 MTase [2] is listed as “comparable to that of compound 1”. For the same compound, the IC50 on SARS-CoV-2 Nsp14 MTase [2] (setting [5]) was 0.069 µM.
For the compound `Nc1ncnc2c1ncn2[C@@H]1O[C@H](CNS(=O)(=O)c2ccc3nc(Cl)ccc3c2)[C@@H](O)[C@H]1O` [Compound 5, N-(((2R,3S,4R,5R)-5-(6-Amino-9H-purin-9-yl)-3,4-dihydroxytetrahydrofuran-2-yl)methyl)-2-chloroquinoline-6-sulfonamide], in the data set with A549/ACE2/TMPRSS2 cells, the “CC50: NT (nontoxic)” value is reported as “NT^b (NT, nontoxic, >95% cell viability at 50 μM;)”. The “EC50: NA (not active)” value in data set [1] was “NA^a (NA, not active, <15% inhibition at 50 μM.)”. The IC50 on SARS-CoV-2 Nsp14 MTase [2] (setting [5]) was 0.44 µM. In addition, the “fold reduction in inhibitory activity” value at SARS-CoV-2 Nsp14 MTase [2] (on replacing 2-naphthalene) worked out at 7 fold.
In the data set on A549/ACE2/TMPRSS2 cells, `CC(=O)Nc1ncnc2c1ncn2[C@@H]1O[C@H](CNS(=O)(=O)c2ccc3ccccc3c2)[C@@H](O)[C@H]1O` [Compound 6, N-(9-((2R,3R,4S,5R)-3,4-Dihydroxy-5-((naphthalene-2-sulfonamido)methyl)tetrahydrofuran-2-yl)-9H-purin-6-yl)acetamide] displayed a CC50 above 100 µM. The “EC50: NA (not active)” value in data set [1] was “NA^a (NA, not active, <15% inhibition at 50 μM.)”. The IC50 on SARS-CoV-2 Nsp14 MTase [2] (LC-MS/MS assay, read-out: IC50) came to 0.048 µM.
Take `CC(=O)O[C@@H]1[C@H](OC(C)=O)[C@@H](CNS(=O)(=O)c2ccc3ccccc3c2)O[C@H]1n1cnc2c(N)ncnc21` [Compound 8, (2R,3R,4R,5R)-2-(6-Amino-9H-purin-9-yl)-5-((naphthalene-2-sulfonamido)methyl)tetrahydrofuran-3,4-diyl diacetate]: the EC50 in data set [3] amounted to 53 µM. In addition, in the data set on A549/ACE2/TMPRSS2 cells, the CC50 was above 100 µM and the “cytotoxicity” value is “minimal cytotoxicity at 100 μM”.
For `CC(=O)Nc1ncnc2c1ncn2[C@@H]1O[C@H](CNS(=O)(=O)c2ccc3ccccc3c2)[C@@H](OC(C)=O)[C@H]1OC(C)=O` [Compound 9, (2R,3R,4R,5R)-2-(6-Acetamido-9H-purin-9-yl)-5-((naphthalene-2-sulfonamido)methyl)tetrahydrofuran-3,4-diyl diacetate] the same measures were 61 µM, above 100 µM and “minimal cytotoxicity at 100 μM”.
Take `Nc1ncnn2c([C@@H]3O[C@H](CNS(=O)(=O)c4ccc5c(Cl)cccc5c4)[C@@H](O)[C@H]3O)ccc12` [Compound 39, N-(((2R,3S,4R,5S)-5-(4-aminopyrrolo[2,1-f][1,2,4]triazin-7-yl)-3,4-dihydroxytetrahydrofuran-2-yl)methyl)-5-chloronaphthalene-2-sulfonamide]: on SARS-CoV-2 Nsp14 MTase [4], the IC50 worked out at 0.049 µM.
For the compound `COc1ccc(S(=O)(=O)NC[C@H]2O[C@@H](c3ccc4c(N)ncnn34)[C@H](O)[C@@H]2O)cc1C#N` [Compound 41, N-(((2R,3S,4R,5S)-5-(4-aminopyrrolo[2,1-f][1,2,4]triazin-7-yl)-3,4-dihydroxytetrahydrofuran-2-yl)methyl)-3-cyano-4-methoxybenzenesulfonamide], the inhibition at 10 µM at SARS-CoV-2 Nsp14 MTase [4] is 94%.
Take `COc1ccc(S(=O)(=O)NC[C@H]2O[C@@H](c3ccc4c(N)ncnn34)[C@H](O)[C@@H]2O)cc1[N+](=O)[O-]` [Compound 43, N-(((2R,3S,4R,5S)-5-(4-aminopyrrolo[2,1-f][1,2,4]triazin-7-yl)-3,4-dihydroxytetrahydrofuran-2-yl)methyl)-4-methoxy-3-nitrobenzenesulfonamide]: the inhibition at 10 µM at SARS-CoV-2 Nsp14 MTase [4] is 79%.
The same measure, in the same setting: the value for `Nc1ncnn2c([C@@H]3O[C@H](CNS(=O)(=O)c4cccc(-c5ccccc5)c4)[C@@H](O)[C@H]3O)ccc12` [Compound 45, N-(((2R,3S,4R,5S)-5-(4-Aminopyrrolo[2,1-f][1,2,4]triazin-7-yl)-3,4-dihydroxytetrahydrofuran-2-yl)methyl)-[1,1′-biphenyl]-3-sulfonamide] was 85%.
Turning to `Nc1ncnn2c([C@@H]3O[C@H](CNS(=O)(=O)c4ccc(-c5ccccc5)cc4)[C@@H](O)[C@H]3O)ccc12` [Compound 47, N-(((2R,3S,4R,5S)-5-(4-Aminopyrrolo[2,1-f][1,2,4]triazin-7-yl)-3,4-dihydroxytetrahydrofuran-2-yl)methyl)-[1,1′-biphenyl]-4-sulfonamide], the inhibition at 10 µM on SARS-CoV-2 Nsp14 MTase [4] was determined as 85%.
Consider `Nc1ncnn2c([C@@H]3O[C@H](CNS(=O)(=O)c4ccc5ccccc5c4)[C@@H](O)[C@H]3O)cc(F)c12` [Compound 51, N-(((2R,3S,4R,5S)-5-(4-Amino-5-fluoropyrrolo[2,1-f][1,2,4]triazin-7-yl)-3,4-dihydroxytetrahydrofuran-2-yl)methyl)naphthalene-2-sulfonamide], for which the IC50 on SARS-CoV-2 Nsp14 MTase [4] came out at 0.032 µM.
The same measure, in the same setting: the value for `CCN(C[C@H]1O[C@@H](c2ccc3c(N)ncnn23)[C@H](O)[C@@H]1O)S(=O)(=O)c1ccc2ccccc2c1` [Compound 53, N-(((2R,3S,4R,5S)-5-(4-Aminopyrrolo[2,1-f][1,2,4]triazin-7-yl)-3,4-dihydroxytetrahydrofuran-2-yl)methyl)-N-ethylnaphthalene-2-sulfonamide] was 0.156 µM.
Take `Nc1ncnc2c([C@@H]3O[C@H](CNS(=O)(=O)c4ccc5ccccc5c4)[C@@H](O)[C@H]3O)csc12` [Compound B12, N-(((2R,3S,4R,5S)-5-(4-Aminothieno[3,2-d]pyrimidin-7-yl)-3,4-dihydroxytetrahydrofuran-2-yl)methyl)naphthalene-2-sulfonamide]: the inhibition at 10 µM on SARS-CoV-2 Nsp14 MTase [4] turned out to be 91%.
On to `Nc1ncnc2c1ccn2[C@@H]1O[C@H](CNS(=O)(=O)c2ccc3ccccc3c2)[C@@H](O)[C@H]1O` [Compound C9, N-(((2R,3S,4R,5R)-5-(4-Amino-7H-pyrrolo[2,3-d]pyrimidin-7-yl)-3,4-dihydroxytetrahydrofuran-2-yl)methyl)naphthalene-2-sulfonamide], for which, at SARS-CoV-2 Nsp14 MTase [4], the IC50 came out at 0.019 µM.
With `COc1ccc(S(=O)(=O)NC[C@H]2O[C@@H](n3ccc4c(N)ncnc43)[C@H](O)[C@@H]2O)cc1C#N` [Compound C11, N-(((2R,3S,4R,5R)-5-(4-Amino-7H-pyrrolo[2,3-d]pyrimidin-7-yl)-3,4-dihydroxytetrahydrofuran-2-yl)methyl)-3-cyano-4-methoxybenzenesulfonamide], the inhibition at 10 µM on SARS-CoV-2 Nsp14 MTase [4] stood at 98%.
For `CCN(C[C@H]1O[C@@H](n2ccc3c(N)ncnc32)[C@H](O)[C@@H]1O)S(=O)(=O)c1ccc(OC)c(C#N)c1` [Compound C13, N-(((2R,3S,4R,5R)-5-(4-Amino-7H-pyrrolo[2,3-d]pyrimidin-7-yl)-3,4-dihydroxytetrahydrofuran-2-yl)methyl)-3-cyano-N-ethyl-4-methoxybenzenesulfonamide], on SARS-CoV-2 Nsp14 MTase [4], the inhibition at 10 µM stood at 100%.
In data set [3], `CCC(CC)COC(=O)[C@H](C)N[P@](=O)(OC[C@H]1O[C@@](C#N)(c2ccc3c(N)ncnn23)[C@H](O)[C@@H]1O)Oc1ccccc1` [remdesivir, reference compound] came in with an EC50 of 0.093 µM. For the same compound, the CC50 in the data set on A549/ACE2/TMPRSS2 cells was 43 µM.
With `Nc1ncnc2c1ncn2[C@@H]1O[C@H](C[C@@H](N)CC[C@H](N)C(=O)O)[C@@H](O)[C@H]1O` [sinefungin, reference compound], the “CC50: NT (nontoxic)” value in the data set on A549/ACE2/TMPRSS2 cells is “NT^b (NT, nontoxic, >95% cell viability at 50 μM;)”. Besides, the “EC50: NA (not active)” value in data set [1] is recorded as “NA^a (NA, not active, <15% inhibition at 50 μM.)”.
